Assay results as given in PubChem BioAssay (NCI).
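Step 1: Grow cells in 96-well plates. Step 2: Expose to compound for 48 hours at 5 concentrations. Step 3: Interpolate endpoints linearly; if unreached, use highest concentration. GI50 marks 50% less growth. Definition used: TGI = concentration required for complete inhibition of growth.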

Experiments:
Assay in all cases: inhibition of tumour cell growth, NCI panel, 48 h; in the data active means GI50 below about 0.43 µM; inactive means the rest
[1] = test system: UACC-257 melanoma
[2] = test system: OVCAR-5 ovarian
[3] = test system: NCI/ADR-RES ovarian
[4] = test system: OVCAR-4 ovarian
[5] = test system: TK-10 renal
[6] = test system: HOP-92 NSCLC
[7] = test system: HCT-15 colon
[8] = test system: CCRF-CEM leukemia
[9] = test system: NCI-H522 lung
[10] = test system: COLO 205 colon
[11] = test system: IGROV1 ovarian
[12] = test system: OVCAR-8 ovarian
[13] = test system: SN12C renal
[14] = test system: MCF7 breast
[15] = test system: M14 melanoma
[16] = test system: EKVX NSCLC
[17] = test system: U251 CNS
[18] = test system: LOX IMVI melanoma
[19] = test system: MALME-3M melanoma
[20] = test system: SK-MEL-2 melanoma
[21] = test system: SK-MEL-5 melanoma
[22] = test system: HCC-2998 colon
[23] = test system: SNB-75 CNS
[24] = test system: SF-295 CNS
[25] = test system: PC-3 prostate
[26] = test system: HS 578T breast
[27] = test system: SK-MEL-28 melanoma
[28] = test system: UO-31 renal
[29] = test system: SR leukemia

N#Cc1cnc(=O)n(C2CC(O)C(CO)O2)c1 (configuration not stated)
inactive: GI50 [2] > 100 µM | GI50 [3] > 100 µM | GI50 [4] > 100 µM | GI50 [5] > 100 µM | GI50 [6] > 100 µM | GI50 [7] > 100 µM | GI50 [8] > 100 µM | GI50 [9] > 100 µM | GI50 [10] > 100 µM | GI50 [11] > 100 µM | GI50 [12] > 100 µM | GI50 [13] > 100 µM | GI50 [14] > 100 µM | GI50 [15] > 100 µM | GI50 [16] > 100 µM | GI50 [17] > 100 µM | GI50 [18] > 100 µM | GI50 [19] > 100 µM | GI50 [20] > 100 µM | GI50 [21] > 100 µM | GI50 [22] > 100 µM | GI50 [23] 44.1 µM | GI50 [24] > 100 µM | GI50 [25] > 100 µM | GI50 [26] > 100 µM | GI50 [27] > 100 µM | GI50 [28] 51.6 µM | GI50 [29] > 100 µM
> 100 µM: TGI [1] | TGI [2] | TGI [3] | TGI [4] | TGI [5] | TGI [6] | TGI [7] | TGI [8] | TGI [9] | TGI [10] | TGI [11] | TGI [12] | TGI [13] | TGI [14] | TGI [15] | TGI [16] | TGI [17] | TGI [18] | TGI [19] | TGI [20] | TGI [21] | TGI [22] | TGI [23] | TGI [24] | TGI [25] | TGI [26] | TGI [27] | TGI [28] | TGI [29]
